Data as given in article PMC12560751 (RSC Advances, 2025).

Assays:
BChE = BChE (Homo sapiens, UniProt P06276); assay: Anticholinesterase activity, modified colorimetric Ellman method; type: biochemical
recombinant hMAO B = target: T1, recombinant hMAO B (Homo sapiens, UniProt P27338); assay: MAO B inhibition, fluorometric method; type: biochemical
T1 sequence (P27338 1-520): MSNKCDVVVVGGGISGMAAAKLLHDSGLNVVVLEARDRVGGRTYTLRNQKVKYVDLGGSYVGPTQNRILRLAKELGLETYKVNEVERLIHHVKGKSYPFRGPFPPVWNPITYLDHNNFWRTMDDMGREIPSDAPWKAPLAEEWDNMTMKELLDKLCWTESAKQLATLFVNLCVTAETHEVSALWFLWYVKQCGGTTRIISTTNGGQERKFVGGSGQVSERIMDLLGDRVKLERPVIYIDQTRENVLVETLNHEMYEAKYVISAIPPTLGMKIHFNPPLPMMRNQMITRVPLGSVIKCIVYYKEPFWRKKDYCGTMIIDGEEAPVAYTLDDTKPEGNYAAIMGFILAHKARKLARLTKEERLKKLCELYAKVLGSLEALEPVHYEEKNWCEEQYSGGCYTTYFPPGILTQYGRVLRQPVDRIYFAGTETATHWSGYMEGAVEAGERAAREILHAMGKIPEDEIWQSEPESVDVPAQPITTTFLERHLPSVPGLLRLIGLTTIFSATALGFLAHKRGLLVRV

NIH/3T3 cell lines = assay: Cytotoxicity, 24-hour MTT assay; type: cell-based; conditions: for IC50: Mus musculus, NIH3T3, 24 h, read-out: IC50 against NIH/3T3
hMAO A = target: T2, hMAO A (Homo sapiens, UniProt P21397); assay: MAO A inhibition, fluorometric method; type: biochemical
T2 sequence (P21397 1-527): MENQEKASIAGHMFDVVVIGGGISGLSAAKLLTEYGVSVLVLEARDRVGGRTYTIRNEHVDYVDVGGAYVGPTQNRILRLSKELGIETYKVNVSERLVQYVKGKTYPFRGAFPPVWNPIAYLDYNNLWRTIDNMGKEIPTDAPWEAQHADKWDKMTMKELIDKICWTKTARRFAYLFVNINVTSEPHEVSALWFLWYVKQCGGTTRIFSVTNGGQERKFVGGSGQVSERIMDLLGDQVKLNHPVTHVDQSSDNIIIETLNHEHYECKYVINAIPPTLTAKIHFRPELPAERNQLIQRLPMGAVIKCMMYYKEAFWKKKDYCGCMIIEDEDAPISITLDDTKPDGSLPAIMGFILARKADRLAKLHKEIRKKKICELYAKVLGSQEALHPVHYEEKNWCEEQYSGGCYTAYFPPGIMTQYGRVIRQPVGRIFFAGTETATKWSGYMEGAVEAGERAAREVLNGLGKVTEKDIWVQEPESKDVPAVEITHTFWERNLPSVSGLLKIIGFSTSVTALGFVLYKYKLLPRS

AChE [1] = target: T3, AChE (Homo sapiens, UniProt P22303); assay: Kinetic studies of AChE enzyme inhibition; type: biochemical; conditions: Lineweaver-Burk plot
T3 sequence (P22303 32-614): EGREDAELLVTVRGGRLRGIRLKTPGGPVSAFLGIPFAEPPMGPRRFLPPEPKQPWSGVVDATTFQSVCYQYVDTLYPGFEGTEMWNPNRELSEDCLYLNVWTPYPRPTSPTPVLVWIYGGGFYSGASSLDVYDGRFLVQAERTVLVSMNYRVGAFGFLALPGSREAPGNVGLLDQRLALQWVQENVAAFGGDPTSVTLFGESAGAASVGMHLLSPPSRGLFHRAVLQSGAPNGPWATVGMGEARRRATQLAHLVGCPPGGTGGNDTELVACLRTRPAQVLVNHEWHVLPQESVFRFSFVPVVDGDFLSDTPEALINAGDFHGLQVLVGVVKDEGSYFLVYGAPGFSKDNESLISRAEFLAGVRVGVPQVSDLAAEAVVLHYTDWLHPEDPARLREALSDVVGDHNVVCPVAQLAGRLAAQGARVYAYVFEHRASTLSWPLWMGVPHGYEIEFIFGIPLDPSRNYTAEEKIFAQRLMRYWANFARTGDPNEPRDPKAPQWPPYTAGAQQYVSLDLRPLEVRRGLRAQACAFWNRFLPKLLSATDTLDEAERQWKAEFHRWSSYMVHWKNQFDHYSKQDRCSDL

AChE [2] = target: T3, AChE; assay: Anticholinesterase activity, modified colorimetric Ellman method; type: biochemical

BChE, sequence (P06276 29-602, species assumed): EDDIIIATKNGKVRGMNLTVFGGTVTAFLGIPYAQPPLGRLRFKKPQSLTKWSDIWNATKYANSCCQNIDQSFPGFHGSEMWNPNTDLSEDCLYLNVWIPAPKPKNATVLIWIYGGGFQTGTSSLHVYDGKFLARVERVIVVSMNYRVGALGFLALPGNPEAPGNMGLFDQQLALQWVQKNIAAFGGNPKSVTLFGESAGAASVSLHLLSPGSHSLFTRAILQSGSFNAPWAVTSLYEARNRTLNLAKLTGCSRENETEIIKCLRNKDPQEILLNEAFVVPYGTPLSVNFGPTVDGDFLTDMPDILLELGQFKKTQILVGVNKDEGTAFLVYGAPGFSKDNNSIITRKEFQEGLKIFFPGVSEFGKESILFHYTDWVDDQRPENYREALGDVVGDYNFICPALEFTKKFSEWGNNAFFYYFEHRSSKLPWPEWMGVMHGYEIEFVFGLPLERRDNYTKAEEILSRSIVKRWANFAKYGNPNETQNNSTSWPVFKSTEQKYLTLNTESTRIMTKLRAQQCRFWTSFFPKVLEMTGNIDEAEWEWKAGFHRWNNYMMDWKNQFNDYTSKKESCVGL

SMILES	IC50 (BChE) [µM]	inhibition at 100 µM (BChE; read-out: BChE % inhibition) [%]	inhibition at 1000 µM (BChE; read-out: BChE % inhibition) [%]	IC50 (recombinant hMAO B; MAO B IC50, tables) [µM]	IC50 (recombinant hMAO B; MAO B IC50, text) [µM]	inhibition at 100 µM (recombinant hMAO B; read-out: MAO B % inhibition) [%]	inhibition at 1000 µM (recombinant hMAO B; read-out: MAO B % inhibition) [%]	IC50 (NIH/3T3 cell lines) [µM]	cytotoxicity (in words) (NIH/3T3 cell lines; NIH/3T3, MTT)	IC50 (hMAO A) [µM]	inhibition at 100 µM (hMAO A; read-out: MAO A % inhibition) [%]	inhibition at 1000 µM (hMAO A; read-out: MAO A % inhibition) [%]	type of inhibition (AChE [1])	IC50 (AChE [2]) [µM]	inhibition at 100 µM (AChE [2]; read-out: AChE % inhibition) [%]	inhibition at 1000 µM (AChE [2]; read-out: AChE % inhibition) [%]	Selectivity and indexes (AChE [2]; selective for AChE (over BChE))
COc1ccc(C(=O)C=Cc2ccc(NC(=O)CN3CCN(C(C)=O)CC3)cc2)cc1OC [Compound 4g, 2-(4-Acetylpiperazin-1-yl)-N-(4-(3-(3,4-dimethoxyphenyl)-3-oxoprop-1-en-1-yl)phenyl)acetamide]	> 1000	29.9 ± 0.92	36.4 ± 0.954	0.114 ± 0.003	< 1	89.2 ± 2.17	92.3 ± 2.16	32.2	not cytotoxic	> 100	39.4 ± 1.11	69 ± 2.52	reversible and mixed-type inhibitor	0.027 ± 0.001	96.4 ± 2.5	98 ± 2.56	AChE/>1000
COc1cccc2c1C(=O)c1c(O)c3c(c(O)c1C2=O)C[C@@](O)(C(=O)CO)C[C@@H]3O[C@H]1C[C@H](N)[C@H](O)[C@H](C)O1 [Doxorubicin, reference compound]	–	–	–	–	–	–	–	> 1000	–	–	–	–	–	–	–	–	–
